Experimental findings from patent publication US20230118142A1, “AGENTS FOR USE IN THE TREATMENT OF TISSUE DAMAGE” (UCL BUSINESS LTD, priority 2020, published 2023) are described below.

SMILES strings stand for the structures.

Common to all, as to set-up: The final concentrations were 0.73 μM native pentameric CRP; from tissue
The target of test [1] is T1, CRP (Homo sapiens, UniProt P02741).
T1 sequence (P02741 19-224): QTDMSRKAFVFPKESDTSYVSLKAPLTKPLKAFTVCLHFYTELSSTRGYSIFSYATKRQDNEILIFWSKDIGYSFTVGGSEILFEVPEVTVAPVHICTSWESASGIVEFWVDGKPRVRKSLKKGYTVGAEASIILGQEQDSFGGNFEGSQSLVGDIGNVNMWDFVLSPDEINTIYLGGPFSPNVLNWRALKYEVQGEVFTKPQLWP
In words: Size exclusion chromatography of CRP/ligand cross linking. The test is classed as binding. The conditions noted are these: CRP/ligand complex re-chromatographed in absence of free ligand. The procedure:
(i) Ligands were diluted to 0.5 mM in TC buffer from up to 10 mM stocks. Serial dilutions were prepared as required. […]
(iii) The complex was chromatographed on a Superdex200 column (10/300 GL; 24 ml bed volume), connected to the ÅKTA100 Explorer HPLC system, and equilibrated and eluted in TC buffer at 0.5 ml/min. Eluates were monitored at 280 nm and fractions (0.5 ml) collected as required.
Size exclusion chromatography on a Superdex 200 column equilibrated and eluted with TC buffer pH 8.0, and calibrated with standard globular marker proteins and with human CRP, the native CRP pentamer (Mr 115 kDa) eluted at 13.9 ml (range 13.7-14.0 ml, n=10).
For orientation: SEC sorts molecules by how far they enter the pores of the column.

In test [2] the target is T1, CRP. Put plainly: Roche immunoturbidimetric assay: pure CRP. The test is classed as binding. To be noted: pure CRP in TC buffer; read-out: IC50 (μM), SD; inhibition of Roche CRP immunoreactivity. On the procedure:
(i) Human CRP at ˜90 μg/ml (3.9 μM monomer or 0.78 μM pentamer) in TC buffer was prepared from a stock solution; a 75 μl aliquot was used in the assay.
(ii) Compounds were prepared from stock solutions at up to 10 mM in TC (labelled S1). They were serially diluted with TC buffer (100 μl ligand+200 μl TC) to provide up to 9 dilutions, S2-S10. A TC buffer control (S0) was included in each assay.
(iii) A 15 μl volume of each ligand solution was incubated with 75 μl of CRP for 1 h at 37° C. The final concentrations were CRP pentamer=0.73 μM, ligands S1-S10=625-0.03 μM, corresponding to ligand:CRP pentamer ratios of 853-0.04.
(iv) CRP concentrations were measured by the Roche microparticle-enhanced immunoturbidimetric assay (10) on the COBAS MIRA autoanalyser, and results expressed as a percentage of the CRP control.
(v) Data were plotted using Sigmaplot (V14) using the 4 parameter logistic curve y=min+(max−min)/(1+(x/EC50)^−Hill slope) to calculate EC50.
(vii) All compounds were assayed in comparison with a highly purified preparation of BPC8, that was prepared by Carbogen AMCIS AG, dissolved in sterile water and diluted into TC buffer as required.
The immunoturbidimetric CRP assay on the Roche COBAS MIRA Plus autoanalyser, utilises two different sized microparticles that are covalently coupled with two different monoclonal antibodies, which recognise different CRP epitopes. The assay was developed by Roche for clinical measurement of CRP serum and plasma with high sensitivity and a very wide dynamic range. Serendipitously, one of the two antibodies binds to an epitope present on the ligand binding B-face of CRP. Thus, when the binding pocket is occupied by ligand and, especially, when the B-face is occluded by the B-face to B-face interaction of two native CRP pentamers produced by cross linking via our unique bivalent ligands, the assay fails to detect the CRP. In contrast, the CRP is all detected and assayed normally by other assays that disrupt the crosslinking and/or use antibodies which recognise different, non-occluded, epitopes. Inhibition of CRP recognition in the Roche assay is thus a convenient tool to monitor the efficacy and potency of complex formation between our unique ligands and CRP.

Test [3] addresses T1, CRP. In words: Immobilised phosphocholine plate assay (125I-CRP binding). To be noted: read-out: IC50 for inhibition of 125I-CRP binding to immobilised phosphocholine. On the procedure:
(i) Phosphocholine was immobilised on Greiner NHS-activated microtitre plates by incubation with 4-aminophenyl-1-phosphocholine. Remaining active sites were blocked by incubation with 4% w/v BSA in TC buffer (TCB).
(ii) Human CRP at 1 μg/ml in TC buffer was spiked with ^125I-labelled CRP to provide 10^6 cpm/ml.
(iii) Compounds were prepared from up to 10 mM stock solutions by dilution in TC buffer to 0.5 mM (labelled S1). Serial dilutions were prepared by diluting 100 μl ligand solution with 200 μl TC buffer (S2-S10). A ligand-free control was also used (SO, TC only).
(iv) A 100 μl volume of CRP solution was incubated with 10 μl of each compound (S1-S10, SO) for 1 h at room temperature without stirring, to provide final ligand concentrations across the range 45.5 μM-6.9 nM with a ligand:CRP monomer molar ratio of 1151-0.06. In some cases, single fixed ligand concentrations were also assayed in comparison with PC.
(v) A 100 μl volume of each CRP-ligand mixture was added to the plate wells and incubated for 2 h at room temperature. Solutions were then discarded and the plates washed with TCB buffer. Bound radioactivity was measured (1 min counts) using a gamma counter (Perkin Elmer Wizard 2470).
(vi) Data were plotted with Sigmaplot v14 software using the 4-parameter logistic curve y=min+(max−min)/(1+(x/EC50)^−Hill slope) to calculate IC50.

With `O=C(CC(c1ccccc1)C(CC(=O)NC(C(=O)O)[C@H]1CN2CCC1CC2)c1ccccc1)NC(C(=O)O)[C@H]1CN2CCC1CC2` (single isomer, unassigned) [P2B-D peak1], at CRP [1], the Stable to rechromatography result is “Yes”. In addition, the IC50 (usually the midpoint of a concentration-inhibition curve) on CRP [2] stood at 0.66 µM.
On to `O=C(NC(C(=O)O)[C@H]1CN2CCC1CC2)C(=O)NC(C(=O)O)[C@H]1CN2CCC1CC2` (stereo partly drawn) [Compound P1d-0, 2-[(3R)-1-azabicyclo[2.2.2]octan-3-yl]-2-[({[(3R)-1-azabicyclo[2.2.2]octan-3-yl](carboxy)methyl}carbamoyl)formamido]acetic acid], for which the IC50 at CRP [2] turned out to be 0.97 µM.
For `O=C(CC(=O)NC(C(=O)O)[C@H]1CN2CCC1CC2)NC(C(=O)O)[C@H]1CN2CCC1CC2` (stereo partly drawn) [Compound P1d-1, 2-[(3R)-1-azabicyclo[2.2.2]octan-3-yl]-2-(2-{[[(3R)-1-azabicyclo[2.2.2]octan-3-yl](carboxy)methyl]carbamoyl}acetamido)acetic acid], at CRP [2], the IC50 is above 400 µM.
In the case of `O=C(CCC(=O)NC(C(=O)O)[C@H]1CN2CCC1CC2)NC(C(=O)O)[C@H]1CN2CCC1CC2` (stereo partly drawn) [Compound P1d-2, 2-[(3R)-1-azabicyclo[2.2.2]octan-3-yl]-2-[3-({[(3R)-1-azabicyclo[2.2.2]octan-3-yl](carboxy)methyl}carbamoyl)propanamido]acetic acid], the Stable to rechromatography result on CRP [1] was “Yes”. On CRP [2], the IC50 was below 2 µM.
Take `O=C(CCCC(=O)NC(C(=O)O)[C@H]1CN2CCC1CC2)NC(C(=O)O)[C@H]1CN2CCC1CC2` (stereo partly drawn) [Compound P1d-3, 2-[(3R)-1-azabicyclo[2.2.2]octan-3-yl]-2-(4-{[[(3R)-1-azabicyclo[2.2.2]octan-3-yl](carboxy)methyl]carbamoyl}butanamido)acetic acid]: on CRP [2], the IC50 was above 400 µM.
For `O=C(CCCCC(=O)NC(C(=O)O)C1CN2CCC1CC2)NC(C(=O)O)C1CN2CCC1CC2` [Compound P1d-4, 2-[(3R)-1-azabicyclo[2.2.2]octan-3-yl]-2-(8-{[[(3R)-1-azabicyclo[2.2.2]octan-3-yl](carboxy)methyl]carbamoyl}pentamido)acetic acid], the Stable to rechromatography result on CRP [1] is recorded as “Partial”. Moreover, on CRP [2], the IC50 was below 2 µM.
On to `C[N+]12CCC(CC1)[C@@H](C(NC(=O)CCCCC(=O)NC(C(=O)O)[C@H]1C[N+]3(C)CCC1CC3)C(=O)O)C2` (stereo partly drawn) [Compound P1d-4A, (3R)-3-{carboxy[5-({carboxy[(3R)-1-methyl-1-azabicyclo[2.2.2]octan-1-ium-3-yl]methyl}carbamoyl)pentanamido]methyl}-1-methyl-1-azabicyclo[2.2.2]octan-1-ium], for which the IC50 at CRP [2] was found to be 1.43 µM.
On to `O=C(CCCCCC(=O)NC(C(=O)O)[C@H]1CN2CCC1CC2)NC(C(=O)O)[C@H]1CN2CCC1CC2` (stereo partly drawn) [Compound P1d-5, 2-[(3R)-1-azabicyclo[2.2.2]octan-3-yl]-2-(6-{[[(3R)-1-azabicyclo[2.2.2]octan-3-yl](carboxy)methyl]carbamoyl}hexanamido)acetic acid], for which, at CRP [2], the IC50 was above 400 µM.
On the same count and under the same terms, with `O=C(CCCCCCC(=O)NC(C(=O)O)[C@H]1CN2CCC1CC2)NC(C(=O)O)[C@H]1CN2CCC1CC2` (stereo partly drawn) [Compound P1d-6, 2-[(3R)-1-azabicyclo[2.2.2]octan-3-yl]-2-[7-({[(3R)-1-azabicyclo[2.2.2]octan-3-yl](carboxy)methyl}carbamoyl)heptanamido]acetic acid] the figure was 9.92 µM; with `O=C(CCCCCCCC(=O)NC(C(=O)O)[C@H]1CN2CCC1CC2)NC(C(=O)O)[C@H]1CN2CCC1CC2` (stereo partly drawn) [Compound P1d-7, 2-[(3R)-1-azabicyclo[2.2.2]octan-3-yl]-2-(8-{[[(3R)-1-azabicyclo[2.2.2]octan-3-yl](carboxy)methyl]carbamoyl}octanamido)acetic acid], above 400 µM.
Take `O=C(Cc1ccc(CC(=O)NC(C(=O)O)[C@H]2CN3CCC2CC3)cc1)NC(C(=O)O)[C@H]1CN2CCC1CC2` (stereo partly drawn) [Compound P2B-C, 2-[[2-[4-[2-[[carboxy-[(3R)-quinuclidin-3-yl]methyl]amino]-2-oxo-ethyl]phenyl]acetyl]amino]-2-[(3R)-quinuclidin-3-yl]acetic acid]: the IC50 on CRP [2] was 2.69 µM.
For the compound `O=C(NC(C(=O)O)[C@H]1CN2CCC1CC2)NC(C(=O)O)[C@H]1CN2CCC1CC2` (stereo partly drawn) [Compound P2B-G, 2-[[-carboxy-[(3R)-quinuclidin-3-yl]methyl]carbamoylamino]-2-[(3R)-quinuclidin-3-yl]acetic acid], the IC50 on CRP [2] turned out to be 26.2 µM.
Still for that read-out and setting: with `CN(C)CCOP(=O)(O)OCCCCCCCCOP(=O)(O)OCCN(C)C` [Dm-BPC8, bis(2-(dimethylamino)ethyl) octane-1,8-diyl bis(hydrogen phosphate), reference compound] the figure was 127 µM.
Consider `O=P(O)(OCCCCCCOP(=O)(O)O[C@@H]1CN2CCC1CC2)O[C@@H]1CN2CCC1CC2` [Pk-025, Hexane-1,6-diyl di(S)-quinuclidin-3-yl) bis(hydrogen phosphate], for which the concentration for half-maximal inhibition (IC50) at CRP [3] worked out at 0.28 µM; at CRP [2], 1.08 µM.
As to `O=P(O)(OCCCCCCCOP(=O)(O)OC1CN2CCC1CC2)OC1CN2CCC1CC2` [Pk-026, Heptane-1,7-diyl di(S)-quinuclidin-3-yl) bis(hydrogen phosphate], the IC50 at CRP [3] came to 0.18 µM.
Turning to `O=P(O)(OCCCCCCCCCCOP(=O)(O)O[C@@H]1CN2CCC1CC2)O[C@@H]1CN2CCC1CC2` [Pk-027, Decane-1,10-diyl di(S)-quinuclidin-3-yl) bis(hydrogen phosphate], the IC50 at CRP [3] turned out to be 0.18 µM.
Same read-out and setting: as for `O=P(O)(OCCCCCCCCCOP(=O)(O)O[C@@H]1CN2CCC1CC2)O[C@@H]1CN2CCC1CC2` [Pk-028, Nonane-1,9-diyl di(S)-quinuclidin-3-yl) bis(hydrogen phosphate], the figure is 0.16 µM.
Turning to `CC(C)(C/C=C/CC(C)(C)COP(=O)(O)O[C@@H]1CN2CCC1CC2)COP(=O)(O)O[C@@H]1CN2CCC1CC2` [Pk-032, di((S)-1-azabicyclo[2.2.2]octan-3-yl) (E)-2,2,7,7-tetramethyloct-4-ene-1,8-diyl bis(hydrogen phosphate)], on CRP [2], the IC50 is 0.72 µM.
Consider `CC(C)(CCCCC(C)(C)COP(=O)(O)O[C@@H]1CN2CCC1CC2)COP(=O)(O)O[C@@H]1CN2CCC1CC2` [Pk-033, [(3S)-1-azabicyclo[2.2.2]octan-3-yloxy]({[8-({[(3S)-1-azabicyclo[2.2.2]octan-3-yloxy](hydroxy)phosphoryl}oxy)-2,2,7,7-tetramethyloctyl]oxy})phosphinic acid], for which the IC50 at CRP [2] is 0.59 µM.
